“And” between values parts separate entries of the source, which are not always exact repeats. Identical values can stand only once.
Experiments:
[1] = CUPRAC assay (Cu(II) reducing power); conditions: concentration at 0.500 absorbance; mean ± SEM
Protocol: (§1) DMSO solutions of four different concentrations (12.5, 25, 50, and 100 μM) of the synthesized compound 1–26 were prepared. DMSO was used as a control, while BHA and α-TOC were used as antioxidant standards.

[2] = molecular target: T1, Acetylcholinesterase (AChE) (Electrophorus electricus, UniProt O42275); assay: biochemical; conditions: for SI for AChE: Selectivity index: IC50 for BChE/IC50 for AChE; for IC50: mean ± SEM of three parallel measurements
T1 construct: Acetylcholinesterase (AChE) from electric eel; from tissue; host or cells: electric eel
T1 sequence (O42275 24-633): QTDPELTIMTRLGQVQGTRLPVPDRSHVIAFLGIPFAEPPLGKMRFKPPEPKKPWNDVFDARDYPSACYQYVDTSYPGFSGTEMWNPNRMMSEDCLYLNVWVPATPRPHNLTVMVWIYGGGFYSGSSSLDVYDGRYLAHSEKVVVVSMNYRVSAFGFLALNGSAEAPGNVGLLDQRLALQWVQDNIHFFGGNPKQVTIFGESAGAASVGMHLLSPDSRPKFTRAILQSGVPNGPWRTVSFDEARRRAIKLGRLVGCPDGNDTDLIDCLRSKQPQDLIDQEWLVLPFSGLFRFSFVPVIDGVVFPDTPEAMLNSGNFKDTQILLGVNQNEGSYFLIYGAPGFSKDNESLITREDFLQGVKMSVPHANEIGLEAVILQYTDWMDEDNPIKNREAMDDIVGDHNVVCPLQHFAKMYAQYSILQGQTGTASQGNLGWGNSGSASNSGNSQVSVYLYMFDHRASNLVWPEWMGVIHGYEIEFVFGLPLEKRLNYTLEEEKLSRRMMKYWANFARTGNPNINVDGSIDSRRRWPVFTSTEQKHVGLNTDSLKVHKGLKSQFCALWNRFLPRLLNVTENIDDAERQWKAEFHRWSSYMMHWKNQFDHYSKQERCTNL
Protocol: (§2) Anticholinesterase activity of all was performed according to the Ellman’s method using a 96-well microplate reader. Acetylcholinesterase (AChE) from electric eel and butyrylcholinesterase (BChE) from horse serum were used. Acetylthiocholine iodide and butyrylthiocholine chloride were utilized as substrates. DTNB (5,50-dithiobis(2-nitrobenzoic) acid was used as a coloring agent to measure the anticholinesterase activity.[43] Measurements were obtained in triplicate.

[3] = molecular target: T2, butyrylcholinesterase (BChE) (Equus caballus, UniProt P81908); assay: biochemical; conditions: for SI for BChE: Selectivity index: IC50 for AChE/IC50 for BChE; for IC50: mean ± SEM of three parallel measurements
T2 construct: butyrylcholinesterase (BChE) from horse serum; from tissue; host or cells: horse serum
T2 sequence (P81908 whole entry): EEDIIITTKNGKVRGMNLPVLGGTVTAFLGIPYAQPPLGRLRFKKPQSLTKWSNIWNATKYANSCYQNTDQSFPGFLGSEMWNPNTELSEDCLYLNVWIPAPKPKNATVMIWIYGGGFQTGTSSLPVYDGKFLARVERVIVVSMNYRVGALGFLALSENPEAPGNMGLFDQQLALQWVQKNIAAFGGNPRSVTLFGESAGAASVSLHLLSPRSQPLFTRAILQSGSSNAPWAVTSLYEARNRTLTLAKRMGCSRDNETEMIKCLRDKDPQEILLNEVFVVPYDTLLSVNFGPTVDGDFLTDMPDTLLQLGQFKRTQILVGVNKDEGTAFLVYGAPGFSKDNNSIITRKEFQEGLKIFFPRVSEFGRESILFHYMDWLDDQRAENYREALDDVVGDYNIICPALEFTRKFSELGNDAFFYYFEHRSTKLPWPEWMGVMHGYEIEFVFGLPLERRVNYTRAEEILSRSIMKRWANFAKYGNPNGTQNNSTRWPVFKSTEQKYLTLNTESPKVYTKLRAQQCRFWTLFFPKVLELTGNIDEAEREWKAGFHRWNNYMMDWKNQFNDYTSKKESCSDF
Protocol: as §2

[4] = DPPH radical scavenging assay; conditions: mean ± SEM of three parallel measurements
Protocol: as §1

tyrosinase = assay type: biochemical; conditions: mean ± SEM of three parallel measurements
[5] = ABTS cation radical scavenging assay; conditions: mean ± SEM of three parallel measurements
Protocol: as §1

[6] = β-carotene-linoleic acid assay (antioxidant); conditions: mean ± SEM of three parallel measurements
Protocol: as §1

urease = urease (Canavalia ensiformis, UniProt P07374); assay: biochemical; conditions: urease activity IC50, mean ± SEM of three parallel measurements
Sequence of urease (P07374 whole entry, looked up): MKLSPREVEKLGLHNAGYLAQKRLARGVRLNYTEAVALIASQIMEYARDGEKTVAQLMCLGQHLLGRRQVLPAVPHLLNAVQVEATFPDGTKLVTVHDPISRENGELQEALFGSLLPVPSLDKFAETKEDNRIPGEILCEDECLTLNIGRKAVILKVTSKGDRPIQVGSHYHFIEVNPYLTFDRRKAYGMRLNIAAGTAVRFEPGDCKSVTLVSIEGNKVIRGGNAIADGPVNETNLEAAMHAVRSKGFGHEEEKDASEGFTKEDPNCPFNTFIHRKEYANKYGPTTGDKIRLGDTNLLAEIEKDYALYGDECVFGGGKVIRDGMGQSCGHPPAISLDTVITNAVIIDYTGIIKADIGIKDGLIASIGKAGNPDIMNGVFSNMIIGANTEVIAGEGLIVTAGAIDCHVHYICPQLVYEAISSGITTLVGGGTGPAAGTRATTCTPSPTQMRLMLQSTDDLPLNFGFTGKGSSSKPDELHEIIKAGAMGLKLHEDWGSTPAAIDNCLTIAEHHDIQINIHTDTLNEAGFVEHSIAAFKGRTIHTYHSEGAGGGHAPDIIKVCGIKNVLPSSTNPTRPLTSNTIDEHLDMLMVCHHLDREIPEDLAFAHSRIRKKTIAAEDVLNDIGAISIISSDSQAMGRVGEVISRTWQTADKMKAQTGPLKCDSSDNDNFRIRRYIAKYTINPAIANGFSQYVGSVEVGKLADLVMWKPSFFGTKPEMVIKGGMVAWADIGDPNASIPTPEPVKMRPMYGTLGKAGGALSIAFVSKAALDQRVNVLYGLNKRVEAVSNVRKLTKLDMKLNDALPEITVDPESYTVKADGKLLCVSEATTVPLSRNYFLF

Row | Structure (SMILES) | CUPRAC assay A0.5 [1] [µM] | SI for AChE [2] | IC50 [2] [µM] | SI for BChE [3] | IC50 [3] [µM] | IC50 [4] [µM] | IC50 (tyrosinase) [µM] | IC50 [5] [µM] | IC50 [6] [µM] | IC50 (urease)
1 | O=C1C(=Cc2ccc(N3CCCC3)cc2)SC(=NN2CCOCC2)N1c1ccccc1 [Compound 12, 2-(Morpholinoimino)-3-phenyl-5-(4-(pyrrolidin-1-yl)benzylidene)thiazolidine-4-one] | 20.77 ± 0.03 | 1.40 | 17.4 ± 0.22 | 0.71 | 24.4 ± 0.51 | 26.1 ± 0.44 | 24800 ± 770 | 24.7 ± 0.25 | 16.2 ± 0.66 | 24.2 µM and 23.6 µM
2 | COc1cc(C=C2SC(=NN3CCOCC3)N(c3ccccc3)C2=O)cc(OC)c1OC [Compound 8, 5-(3,4,5-(Trimethoxy)benzylidene)-2-(morpholinoimino)-3-phenylthiazolidin-4-one] | 35.13 ± 0.03 | 1.41 | 33.61 ± 0.33 | 0.71 | 47.3 ± 0.77 | 44.06 ± 0.21 | 25700 ± 390 | 32.95 ± 0.28 | 36.5 ± 0.39 | 53.4 ± 0.64 µM
3 | O=C1C(=Cc2ccc3[nH]ccc3c2)SC(=NN2CCOCC2)N1c1ccccc1 [Compound 25, 5-((1H-Indole-5-yl)methylene)-2-(morpholinoimino)-3-phenylthiazolidin-4-one] | 39.50 ± 0.01 | 1.29 | 19.8 ± 0.5 | 0.78 | 25.5 ± 0.78 | 38.2 ± 0.88 | 8400 ± 640 | 34.05 ± 0.27 | 33.6 ± 0.73 | 21.7 ± 0.06 µM
4 | O=C1C(=Cc2ccc(N3CCOCC3)cc2)SC(=NN2CCOCC2)N1c1ccccc1 [Compound 14, 2-(Morfolinoimino)-3-phenyl-5-(4-(morpholin-1-yl)benzylidene)thiazolidine-4-one] | 27.43 ± 0.00 | 1.34 | 19.2 ± 0.61 | 0.75 | 25.7 ± 1.05 | 33.86 ± 0.11 | 8100 ± 220 | 30.3 ± 0.36 | 26.31 ± 0.03 | 26.7 ± 0.52 µM
5 | O=C1CSC(=NN2CCOCC2)N1c1ccccc1 [Compound 2, 2-(Morpholinoimino)-3-phenylthiazolidin-4-one] | 36.35 ± 0.00 | 1.50 | 44.3 ± 0.75 | 0.67 | 66.44 ± 0.41 | 101.9 ± 0.61 | 30200 ± 610 | 31.66 ± 0.13 | 40.43 ± 0.11 | 65.4 ± 0.67 µM
6 | O=C1C(=Cc2cccnc2)SC(=NN2CCOCC2)N1c1ccccc1 [Compound 22, 2-(Morpholinoimino)-3-phenyl-5-(pyridin-3-ylmethylene)thiazolidin-4-one] | 30.42 ± 0.01 | 1.33 | 24.8 ± 0.3 | 0.75 | 33 ± 0.84 | 34.77 ± 0.22 | 9130 ± 550 | 30.11 ± 0.28 | 31.6 ± 0.79 | 26.2 ± 0.47 µM
7 | O=C1C(=Cc2ccsc2)SC(=NN2CCOCC2)N1c1ccccc1 [Compound 16, 2-(Morpholinoimino)-3-phenyl-5-(thiophen-3-ylmethylene) thiazolidine-4-one] | 16.94 ± 0.01 | 1.46 | 29 ± 1.03 | 0.69 | 42.5 ± 0.18 | 36.21 ± 0.17 | 24080 ± 150 | 35.7 ± 1.61 | 31.4 ± 1.01 | 42 ± 0.81 µM

From publication PMC10586451, “Design, Synthesis, Pharmacological Activities, Structure–Activity Relationship, and In Silico Studies of Novel 5-Substituted-2-(morpholinoimino)-thiazolidin-4-ones” (ACS Omega, 2023)
